{"source": "patent US11395490B2", "about": "“Herbicidal composition” (SYNGENTA CROP PROTECTION, LLC, priority 2005, dated 2022)", "assay_type_in_all_cases": "in vivo", "settings_in_all_cases": "21 days after treatment", "key": {"[1]": {"tested_on": "Euphorbia heterophylla (EPHHL)", "assay": "Post-emergence test, Euphorbia heterophylla", "source_text": "(§1) The herbicidal action to be expected, We, for a given combination of two herbicides can be calculated as follows (see COLBY, S. R. “Calculating synergistic and antagonistic response of herbicide combinations”. Weeds 15, pages 20-22; 1967): We=X+[Y·(100−X)/100] wherein: X=% herbicidal action in the case of treatment with active ingredient (A) using an application rate of p kg per hectare, in comparison with untreated control (=0%). Y=% herbicidal action in the case of treatment with active ingredient (B) using an application rate of q kg per hectare, in comparison with untreated control. We=expected herbicidal action (% herbicidal action in comparison with untreated control) after treatment with active ingredient (A) and active ingredient (B) at a rate of application of p+q kg of active ingredient per hectare. If the action actually observed is greater than the expected value We, there is a synergistic effect. Trial Description, Pre-Emergence Test: Monocotyledonous and dicotyledonous test plants are sown in standard soil in plastics pots. The plants tested were: Maize (ZEAMX), Ipomea purpurea (PHBPU), Euphorbia heterophylla (EPHHL), Panicum millenacearum (PANMI). Immediately after sowing, the test compounds in aqueous suspension are applied by spraying (200 litres of water/ha). (A) was formulated as a SC50, and (B1), (B2) and (B3) were formulated as WP25; 1% adjuvant crop oil concentrate (Agridex) (v/v) was added to all treatments. The compounds were applied alone and in combination as tank mixtures. The rates of application depend on the optimum concentrations determined under field conditions and greenhouse conditions. The test plants are then cultivated in a greenhouse under optimum conditions. Evaluation of the tests is made after 21 days (% action, 100%=plants have died, 0%=no phytotoxic action).\n(§2) Trial Description Post-Emergence Test: The test plants are raised in plastics pots under greenhouse conditions as far as the 2- to 3-leaf stage. A standard soil is used as the cultivation substrate. The plants tested were: Maize (ZEAMX), Ipomea purpurea (PHBPU), Sorghum vulgare (SORVU), Euphorbia heterophylla (EPHHL), Panicum millenacearum (PANMI). At the 2- to 3-leaf stage, the herbicides are applied individually and as mixtures to the test plants. The test compounds are applied in the form of an aqueous suspension in 200 litres of water/ha. (A) was formulated as a SC50, and (B1), (B2) and (B3) were formulated as WP25; 1% adjuvant crop oil concentrate (Agridex) (v/v) was added to all treatments. The compounds were applied alone and in combination as tank mixtures. The rates of application depend on the optimum concentrations determined under field conditions and greenhouse conditions. Evaluation of the tests is made after 21 days (% action, 100%=plants have died, 0%=no phytotoxic action)."}, "[2]": {"tested_on": "Euphorbia heterophylla (EPHHL)", "assay": "Pre-emergence test, Euphorbia heterophylla", "source_text": "as §1"}, "[3]": {"tested_on": "Panicum millenacearum (PANMI)", "assay": "Pre-emergence test, Panicum millenacearum", "source_text": "as §1"}, "[4]": {"tested_on": "Panicum millenacearum (PANMI)", "assay": "Post-emergence test, Panicum millenacearum", "source_text": "as §1, §2"}, "[5]": {"tested_on": "Ipomea purpurea (PHBPU)", "assay": "Pre-emergence test, Ipomea purpurea", "source_text": "as §1"}, "[6]": {"tested_on": "Maize (ZEAMX)", "assay": "Post-emergence test, Maize", "source_text": "as §1, §2"}, "[7]": {"tested_on": "Ipomea purpurea (PHBPU)", "assay": "Post-emergence test, Ipomea purpurea", "source_text": "as §1, §2"}, "[8]": {"tested_on": "Maize (ZEAMX)", "assay": "Pre-emergence test, Maize", "source_text": "as §1"}, "[9]": {"tested_on": "Sorghum vulgare (SORVU)", "assay": "Post-emergence test, Sorghum vulgare", "source_text": "as §1, §2"}}, "data": [{"compound": "Cc1c(C(=O)c2cnn(C)c2O)ccc(S(C)(=O)=O)c1C1=NOCC1", "note": "[(B3), topramezone]", "values": [{"measurement": "Observed plant damage EPHHL", "setting": "[1]; rate 5 g/ha", "result": 0, "unit": "%"}, {"measurement": "Observed plant damage EPHHL", "setting": "[1]; rate 10 g/ha", "result": 20, "unit": "%"}, {"measurement": "Observed plant damage EPHHL", "setting": "[1]; rate 20 g/ha", "result": 50, "unit": "%"}, {"measurement": "Observed plant damage EPHHL", "setting": "[1]; rate 40 g/ha", "result": 65, "unit": "%"}, {"measurement": "Observed plant damage EPHHL", "setting": "[1]; rate 80 g/ha", "result": 90, "unit": "%"}, {"measurement": "Observed plant damage EPHHL", "setting": "[2]; rate 5 g/ha", "result": 0, "unit": "%"}, {"measurement": "Observed plant damage EPHHL", "setting": "[2]; rate 10 g/ha", "result": 0, "unit": "%"}, {"measurement": "Observed plant damage EPHHL", "setting": "[2]; rate 20 g/ha", "result": 0, "unit": "%"}, {"measurement": "Observed plant damage EPHHL", "setting": "[2]; rate 40 g/ha", "result": 0, "unit": "%"}, {"measurement": "Observed plant damage EPHHL", "setting": "[2]; rate 80 g/ha", "result": 30, "unit": "%"}, {"measurement": "Observed plant damage PANMI", "setting": "[3]; rate 5 g/ha", "result": 0, "unit": "%"}, {"measurement": "Observed plant damage PANMI", "setting": "[3]; rate 10 g/ha", "result": 0, "unit": "%"}, {"measurement": "Observed plant damage PANMI", "setting": "[3]; rate 20 g/ha", "result": 0, "unit": "%"}, {"measurement": "Observed plant damage PANMI", "setting": "[3]; rate 40 g/ha", "result": 0, "unit": "%"}, {"measurement": "Observed plant damage PANMI", "setting": "[3]; rate 80 g/ha", "result": 98, "unit": "%"}, {"measurement": "Observed plant damage PANMI", "setting": "[4]; rate 5 g/ha", "result": 0, "unit": "%"}, {"measurement": "Observed plant damage PANMI", "setting": "[4]; rate 10 g/ha", "result": 20, "unit": "%"}, {"measurement": "Observed plant damage PANMI", "setting": "[4]; rate 20 g/ha", "result": 80, "unit": "%"}, {"measurement": "Observed plant damage PANMI", "setting": "[4]; rate 40 g/ha", "result": 90, "unit": "%"}, {"measurement": "Observed plant damage PANMI", "setting": "[4]; rate 80 g/ha", "result": 90, "unit": "%"}, {"measurement": "Observed plant damage PHBPU", "setting": "[5]; rate 5 g/ha", "result": 0, "unit": "%"}, {"measurement": "Observed plant damage PHBPU", "setting": "[5]; rate 10 g/ha", "result": 0, "unit": "%"}, {"measurement": "Observed plant damage PHBPU", "setting": "[5]; rate 20 g/ha", "result": 0, "unit": "%"}, {"measurement": "Observed plant damage PHBPU", "setting": "[5]; rate 40 g/ha", "result": 0, "unit": "%"}, {"measurement": "Observed plant damage PHBPU", "setting": "[5]; rate 80 g/ha", "result": 55, "unit": "%"}, {"measurement": "Observed plant damage ZEAMX", "setting": "[6]; rate 5 g/ha", "result": 0, "unit": "%"}, {"measurement": "Observed plant damage ZEAMX", "setting": "[6]; rate 10 g/ha", "result": 0, "unit": "%"}, {"measurement": "Observed plant damage ZEAMX", "setting": "[6]; rate 20 g/ha", "result": 0, "unit": "%"}, {"measurement": "Observed plant damage ZEAMX", "setting": "[6]; rate 40 g/ha", "result": 0, "unit": "%"}, {"measurement": "Observed plant damage ZEAMX", "setting": "[6]; rate 80 g/ha", "result": 20, "unit": "%"}, {"measurement": "Observed plant damage PHBPU", "setting": "[7]; rate 5 g/ha", "result": 35, "unit": "%"}, {"measurement": "Observed plant damage PHBPU", "setting": "[7]; rate 10 g/ha", "result": 55, "unit": "%"}, {"measurement": "Observed plant damage PHBPU", "setting": "[7]; rate 20 g/ha", "result": 20, "unit": "%"}, {"measurement": "Observed plant damage PHBPU", "setting": "[7]; rate 40 g/ha", "result": 25, "unit": "%"}, {"measurement": "Observed plant damage PHBPU", "setting": "[7]; rate 80 g/ha", "result": 80, "unit": "%"}, {"measurement": "Observed plant damage ZEAMX", "setting": "[8]; rate 5 g/ha", "result": 0, "unit": "%"}, {"measurement": "Observed plant damage ZEAMX", "setting": "[8]; rate 10 g/ha", "result": 0, "unit": "%"}, {"measurement": "Observed plant damage ZEAMX", "setting": "[8]; rate 20 g/ha", "result": 0, "unit": "%"}, {"measurement": "Observed plant damage ZEAMX", "setting": "[8]; rate 40 g/ha", "result": 0, "unit": "%"}, {"measurement": "Observed plant damage ZEAMX", "setting": "[8]; rate 80 g/ha", "result": 0, "unit": "%"}, {"measurement": "Observed plant damage SORVU", "setting": "[9]; rate 5 g/ha", "result": 0, "unit": "%"}, {"measurement": "Observed plant damage SORVU", "setting": "[9]; rate 10 g/ha", "result": 0, "unit": "%"}, {"measurement": "Observed plant damage SORVU", "setting": "[9]; rate 20 g/ha", "result": 0, "unit": "%"}, {"measurement": "Observed plant damage SORVU", "setting": "[9]; rate 40 g/ha", "result": 0, "unit": "%"}, {"measurement": "Observed plant damage SORVU", "setting": "[9]; rate 80 g/ha", "result": 0, "unit": "%"}]}]}
